Where two headings read alike, the source gives them in different places.
Legend:
virus strain F (R13025) = experiment: microbe, parasite or virus in culture; assay type: cell-based, HIV; details: FR=EC50(mutant strain)/EC50(HIV-1 strain LAI); strain F
How it was run: (§1)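 MT4 cells, HIV- or mock-infected, were cultured five days with a range of inhibitor concentrations, and viability was then read by MTT conversion to formazan (isopropanol-solubilized, A540 nm). EC50/EC90 are the concentrations protecting 50%/90% of infected cells from viral cytopathic effect. Fold resistance = EC50(mutant strain)/EC50(HIV-1 LAI).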

virus strain S (R13080) = experiment: microbe, parasite or virus in culture; assay type: cell-based, HIV; details: FR=EC50(mutant strain)/EC50(HIV-1 strain LAI); strain S
How it was run: as §1

[1] = test system: clinically isolated HIV strain A; experiment: Antiviral spectrum, cellular assay (fold resistance), strain A; assay type: cell-based; details: FR=EC50(mutant strain)/EC50(HIV-1 strain LAI)
Procedure: (§2) HIV- or mock-infected MT4 cells were incubated for five days in the presence of various concentrations of the inhibitor. At the end of the incubation period, all HIV-infected cells have been killed by the replicating virus in the control cultures in the absence of any inhibitor. Cell viability is measured by measuring the concentration of MTT, a yellow, water soluble tetrazolium dye that is converted to a purple, water insoluble formazan in the mitochondria of living cells only. Upon solubilization of the resulting formazan crystals with isopropanol, the absorbance of the solution is monitored at 540 nm. The values correlate directly to the number of living cells remaining in the culture at the completion of the five day incubation. The inhibitory activity of the compound was monitored on the virus-infected cells and was expressed as EC50 and EC90. These values represent the amount of the compound required to protect 50% and 90%, respectively, of the cells from the cytopathogenic effect of the virus. The toxicity of the compound was measured on the mock-infected cells and was expressed as CC50, which represents the concentration of compound required to inhibit the growth of the cells by 50%. The selectivity index (SI) (ratio CC50/EC50) is an indication of the selectivity of the anti-HIV activity of the inhibitor.
(§3) Because of the increasing emergence of drug resistant HIV strains, the present compounds were tested for their potency against clinically isolated HIV strains harboring several mutations. These mutations are associated with resistance to protease inhibitors and result in viruses that show various degrees of phenotypic cross-resistance to the currently commercially available drugs such as for instance saquinavir, ritonavir, nelfinavir, indinavir and amprenavir.
(§4) As a measure of the broad spectrum activity of the present compounds, the fold resistance (FR) defined as FR=EC50(mutant strain)/EC50(HIV-1 strain LAI).

[2] = test system: clinically isolated HIV strain B; experiment: Antiviral spectrum, cellular assay (fold resistance), strain B; assay type: cell-based; details: FR=EC50(mutant strain)/EC50(HIV-1 strain LAI)
Procedure: as §2, §3, §4

[3] = test system: clinically isolated HIV strain C; experiment: Antiviral spectrum, cellular assay (fold resistance), strain C; assay type: cell-based; details: FR=EC50(mutant strain)/EC50(HIV-1 strain LAI)
Procedure: as §2, §3, §4

[4] = test system: clinically isolated HIV strain D; experiment: Antiviral spectrum, cellular assay (fold resistance), strain D; assay type: cell-based; details: FR=EC50(mutant strain)/EC50(HIV-1 strain LAI)
Procedure: as §2, §3, §4

[5] = test system: clinically isolated HIV strain E; experiment: Antiviral spectrum, cellular assay (fold resistance), strain E; assay type: cell-based; details: FR=EC50(mutant strain)/EC50(HIV-1 strain LAI)
Procedure: as §2, §3, §4

[6] = test system: clinically isolated HIV strain G; experiment: Antiviral spectrum, cellular assay (fold resistance), strain G; assay type: cell-based; details: FR=EC50(mutant strain)/EC50(HIV-1 strain LAI)
Procedure: as §2, §3, §4

[7] = test system: clinically isolated HIV strain H; assay type: cell-based; details: FR=EC50(mutant strain)/EC50(HIV-1 strain LAI)
How it was run: as §1

[8] = test system: clinically isolated HIV strain I; assay type: cell-based; details: FR=EC50(mutant strain)/EC50(HIV-1 strain LAI)
How it was run: as §1

[9] = test system: clinically isolated HIV strain J; assay type: cell-based; details: FR=EC50(mutant strain)/EC50(HIV-1 strain LAI)
How it was run: as §1

[10] = test system: clinically isolated HIV strain O; assay type: cell-based; details: FR=EC50(mutant strain)/EC50(HIV-1 strain LAI)
How it was run: as §1

[11] = test system: clinically isolated HIV strain T; assay type: cell-based; details: FR=EC50(mutant strain)/EC50(HIV-1 strain LAI)
How it was run: as §1

[12] = test system: clinically isolated HIV strain K; experiment: Antiviral spectrum, cellular assay (fold resistance), strain K; assay type: cell-based; details: FR=EC50(mutant strain)/EC50(HIV-1 strain LAI)
Procedure: as §2, §3, §4

[13] = test system: clinically isolated HIV strain L; experiment: Antiviral spectrum, cellular assay (fold resistance), strain L; assay type: cell-based; details: FR=EC50(mutant strain)/EC50(HIV-1 strain LAI)
Procedure: as §2, §3, §4

[14] = test system: clinically isolated HIV strain M; experiment: Antiviral spectrum, cellular assay (fold resistance), strain M; assay type: cell-based; details: FR=EC50(mutant strain)/EC50(HIV-1 strain LAI)
Procedure: as §2, §3, §4

[15] = test system: clinically isolated HIV strain N; experiment: Antiviral spectrum, cellular assay (fold resistance), strain N; assay type: cell-based; details: FR=EC50(mutant strain)/EC50(HIV-1 strain LAI)
Procedure: as §2, §3, §4

[16] = test system: clinically isolated HIV strain P; experiment: Antiviral spectrum, cellular assay (fold resistance), strain P; assay type: cell-based; details: FR=EC50(mutant strain)/EC50(HIV-1 strain LAI)
Procedure: as §2, §3, §4

[17] = test system: clinically isolated HIV strain Q; experiment: Antiviral spectrum, cellular assay (fold resistance), strain Q; assay type: cell-based; details: FR=EC50(mutant strain)/EC50(HIV-1 strain LAI)
Procedure: as §2, §3, §4

[18] = test system: clinically isolated HIV strain R; experiment: Antiviral spectrum, cellular assay (fold resistance), strain R; assay type: cell-based; details: FR=EC50(mutant strain)/EC50(HIV-1 strain LAI)
Procedure: as §2, §3, §4

HIV-1 strain LAI = experiment: Cellular anti-HIV assay in MT4 cells (MTT), wild type laboratory strain; assay type: cell-based; details: read-out: EC50 value against HIV-1 strain LAI
Procedure: The compounds of the present invention were examined for anti-viral activity in a cellular assay. […] The cellular assay was performed according to the following procedure.
Cellular Assay Experimental Method:
as §2

[19] = Human immunodeficiency virus 1, 120 h, MT4 cells, five days, MTT

SMILES	fold resistance (FR), strain F (virus strain F (R13025))	fold resistance (FR), strain S (virus strain S (R13080))	fold resistance (FR), strain A [1]	fold resistance (FR), strain B [2]	fold resistance (FR), strain C [3]	fold resistance (FR), strain D [4]	fold resistance (FR), strain E [5]	fold resistance (FR), strain G [6]	fold resistance (FR), strain H [7]	fold resistance (FR), strain I [8]	fold resistance (FR), strain J [9]	fold resistance (FR), strain O [10]	fold resistance (FR), strain T [11]	fold resistance (FR), strain K [12]	fold resistance (FR), strain L [13]	fold resistance (FR), strain M [14]	fold resistance (FR), strain N [15]	fold resistance (FR), strain P [16]	fold resistance (FR), strain Q [17]	fold resistance (FR), strain R [18]	other results
Cc1cccc(C)c1OCC(=O)N[C@@H](Cc1ccccc1)[C@H](O)CN(CC(C)C)S(=O)(=O)c1ccc2nc(NC(=O)CN3CCCC3)sc2c1 [Compound 37]	6.1	10.0	6.1	1.9	3.8	1.4	1.6	1.3	4.1	6.8	5.0	7.3	185.8	0.5	2.1	5.0	1.4	0.3	3.8	1.5	
CC(C)CN(C[C@@H](O)[C@H](Cc1ccccc1)NC(=O)O[C@H]1CCOC1)S(=O)(=O)c1ccc2nc(NC(=O)CN3CCN(C)CC3)sc2c1.O=C(O)C(F)(F)F [Compound 64]	4.6	17.0	0.7	0.7	0.6	0.6	0.7	0.6	0.9	1.3	1.0	0.8	165.5	0.7	0.2	0.7	0.9	0.2	2.3	0.6	
CC(C)CN(CC(O)C(Cc1ccccc1)NC(=O)OC1COC2OCCC12)S(=O)(=O)c1ccc2nc(NC(=O)CN(C)C)sc2c1 (stereo not shown) [Compound 11]	0.7	1.1	0.3	0.4	0.5	0.3		0.5	0.9	0.5	0.4	0.7	7.3	0.4	0.3	0.4	1.6	0.3	0.0	0.5	EC50 (HIV-1 strain LAI; [19]): < 50 nM
CC(=O)N(CCN1CCCC1)c1nc2ccc(S(=O)(=O)N(CC(C)C)CC(O)C(Cc3ccccc3)NC(=O)OC3COC4OCCC34)cc2s1 (stereo not shown) [Compound 19]	2.4	2.2							2.1	1.1	0.6	0.5	10.5								EC50 (HIV-1 strain LAI; [19]): < 50 nM
CC(C)CN(CC(O)C(Cc1ccccc1)NC(=O)OC1COC2OCCC12)S(=O)(=O)c1ccc2nc(NC(=O)CN(C)C)sc2c1 (mixture of isomers) [Compound 3]	1.1	1.8	0.4		0.4	0.8	0.4	0.4	1.0	0.8		1.0	34.2		0.3		2.3	0.4	0.5	0.5	
CC(C)CN(CC(O)C(Cc1ccccc1)NC(=O)OC1CCOC1)S(=O)(=O)c1ccc2nc(NCCN(C)C)sc2c1 (stereo not shown) [Compound 56]	33.1	67.1							4.6	3.2	2.8	2.1	509.6								EC50 (HIV-1 strain LAI; Human immunodeficiency virus 1, MT4, 120 h): < 50 nM
CC(C)CN(C[C@@H](O)[C@H](Cc1ccccc1)NC(=O)OC1COC2OCCC12)S(=O)(=O)c1ccc2nc(NCCN(C)C)sc2c1 (mixture of isomers) [Compound 4]	2.2	2.9							1.9	1.2	0.5	0.5	48.8								EC50 (HIV-1 strain LAI; [19]): < 50 nM

Reference: US7659404B2, “Broad spectrum 2-(substituted-amino)-benzothiazole sulfonamide HIV protease inhibitors” (Tibotec Pharmaceuticals Ltd., priority 2001, dated 2010)
